The values that follow come from publication PMC7699745, “The Search for New Anticonvulsants in a Group of (2,5-Dioxopyrrolidin-1-yl)(phenyl)Acetamides with Hybrid Structure—Synthesis and In Vivo/In Vitro Studies” (International Journal of Molecular Sciences, 2020).

Data set [1] has as its system MES seizures, mice. As to the kind of experiment: Maximal electroshock (MES) seizure test. It counts as in vivo. Conditions: Mus musculus, ip; for responders at 100 mg/kg: 0.5 h, i.p.; for ED50: at TPE (0.5 h; LTG 1.0 h), 95% confidence intervals in parentheses.
Data set [2] deals with 6 Hz (32 mA) seizures, mice. The experiment in a line: Psychomotor 6 Hz (32 mA) seizure model. It counts as in vivo. The conditions noted are these: Mus musculus, ip; for responders at 100 mg/kg: 0.5 h, read-out: 6 Hz (32 mA) test, number of mice protected / number of mice tested (converted).
The test system of data set [3] is capsaicin-induced nociceptive response, mice. As to the kind of experiment: Capsaicin-induced pain model. It is filed as in vivo. The source says: Capsaicin activates C polymodal fibers and enhances their firing, which contributes to subsequent hyperalgesia. The molecular mechanism of action of capsaicin is the activation of the nonselective cation channel, transient receptor potential vanilloid-1 (TRPV1), which is localized on nociceptive free nerve endings. That induces the release of proinflammatory neuropeptides such as calcitonin gene-related peptide (CGRP), vasoactive intestinal peptide (VIP), and substance P (SP). The phenomenon of the induction of tissue inflammation by the peripheral nervous system is called neurogenic inflammation, and it is involved in the development of inflammatory and neuropathic pain. AEDs such as gabapentin, topiramate, or lamotrigine decrease capsaicin-induced nocifensive behavior [25].
The experimental groups consisted of 6–12 adult male Albino Swiss mice (CD-1, 18–25 g). Each animal was tested only once. […]
The experimental in vivo procedures were previously reported for the formalin test; compounds 4 and 30 were tested in three doses—40, 80, 120 mg/kg (4), and 20, 40, 80 mg/kg (30). […] The in vivo procedure for the model of capsaicin-induced nociception was previously reported; the animals were pretreated with vehicle (10 mL/kg, negative control) and the dose–response of investigated compounds was evaluated at 40, 80, 120 mg/kg (4), and 20, 40, 80 mg/kg (30). […]

The subject of data set [4] is Na+ channel (site 2). The experiment in a line: Radioligand binding, Na+ channel (site 2). The conditions noted are these: 10 µM; rat cerebral cortex. The procedure: (§1) Taking into consideration the structural similarities of molecules described in the current manuscript with their chemical prototypes AS-1 and DK-1, the binding studies toward aforementioned molecular targets were performed commercially for several active substances from each subseries (3, 4, 21, 24, 25, 27, 29, and 30). Furthermore, we also tested two other and well-known targets for AEDs, namely, the Cav2.2 (N-type) calcium channel and gamma-aminobutyric acid (GABA)-A receptor. With the aim of excluding potentially dangerous proarrhythmic properties for each compound, their interaction with the potassium (hERG) channel was also tested.
(§2) Binding studies were carried out commercially in Eurofines Laboratories (Poitiers, France). The functional assays were performed in Eurofins Panlabs Discovery Services Taiwan, Ltd. (New Taipei City, Taiwan). All procedures are described elsewhere (for details, see Table S4 in Supplementary Materials).
(§3) Binding studies were carried out commercially in Eurofines Laboratories (Poitiers, France). The
(§4) functional assays were performed in Eurofins Panlabs Discovery Services Taiwan, Ltd. (New Taipei
(§5) City, Taiwan). All procedures are described elsewhere (Table S4).
Table S4. In vitro binding and functional assays. […]

In data set [5] the target is T1, Cav1.2 channel (Rattus norvegicus, UniProt P22002).
T1 construct: tissue Eurofins (Poitiers, France), contract assay; host or cells: rat cerebral cortex (own knowledge of the vendor's assay)
T1 sequence (P22002 whole entry): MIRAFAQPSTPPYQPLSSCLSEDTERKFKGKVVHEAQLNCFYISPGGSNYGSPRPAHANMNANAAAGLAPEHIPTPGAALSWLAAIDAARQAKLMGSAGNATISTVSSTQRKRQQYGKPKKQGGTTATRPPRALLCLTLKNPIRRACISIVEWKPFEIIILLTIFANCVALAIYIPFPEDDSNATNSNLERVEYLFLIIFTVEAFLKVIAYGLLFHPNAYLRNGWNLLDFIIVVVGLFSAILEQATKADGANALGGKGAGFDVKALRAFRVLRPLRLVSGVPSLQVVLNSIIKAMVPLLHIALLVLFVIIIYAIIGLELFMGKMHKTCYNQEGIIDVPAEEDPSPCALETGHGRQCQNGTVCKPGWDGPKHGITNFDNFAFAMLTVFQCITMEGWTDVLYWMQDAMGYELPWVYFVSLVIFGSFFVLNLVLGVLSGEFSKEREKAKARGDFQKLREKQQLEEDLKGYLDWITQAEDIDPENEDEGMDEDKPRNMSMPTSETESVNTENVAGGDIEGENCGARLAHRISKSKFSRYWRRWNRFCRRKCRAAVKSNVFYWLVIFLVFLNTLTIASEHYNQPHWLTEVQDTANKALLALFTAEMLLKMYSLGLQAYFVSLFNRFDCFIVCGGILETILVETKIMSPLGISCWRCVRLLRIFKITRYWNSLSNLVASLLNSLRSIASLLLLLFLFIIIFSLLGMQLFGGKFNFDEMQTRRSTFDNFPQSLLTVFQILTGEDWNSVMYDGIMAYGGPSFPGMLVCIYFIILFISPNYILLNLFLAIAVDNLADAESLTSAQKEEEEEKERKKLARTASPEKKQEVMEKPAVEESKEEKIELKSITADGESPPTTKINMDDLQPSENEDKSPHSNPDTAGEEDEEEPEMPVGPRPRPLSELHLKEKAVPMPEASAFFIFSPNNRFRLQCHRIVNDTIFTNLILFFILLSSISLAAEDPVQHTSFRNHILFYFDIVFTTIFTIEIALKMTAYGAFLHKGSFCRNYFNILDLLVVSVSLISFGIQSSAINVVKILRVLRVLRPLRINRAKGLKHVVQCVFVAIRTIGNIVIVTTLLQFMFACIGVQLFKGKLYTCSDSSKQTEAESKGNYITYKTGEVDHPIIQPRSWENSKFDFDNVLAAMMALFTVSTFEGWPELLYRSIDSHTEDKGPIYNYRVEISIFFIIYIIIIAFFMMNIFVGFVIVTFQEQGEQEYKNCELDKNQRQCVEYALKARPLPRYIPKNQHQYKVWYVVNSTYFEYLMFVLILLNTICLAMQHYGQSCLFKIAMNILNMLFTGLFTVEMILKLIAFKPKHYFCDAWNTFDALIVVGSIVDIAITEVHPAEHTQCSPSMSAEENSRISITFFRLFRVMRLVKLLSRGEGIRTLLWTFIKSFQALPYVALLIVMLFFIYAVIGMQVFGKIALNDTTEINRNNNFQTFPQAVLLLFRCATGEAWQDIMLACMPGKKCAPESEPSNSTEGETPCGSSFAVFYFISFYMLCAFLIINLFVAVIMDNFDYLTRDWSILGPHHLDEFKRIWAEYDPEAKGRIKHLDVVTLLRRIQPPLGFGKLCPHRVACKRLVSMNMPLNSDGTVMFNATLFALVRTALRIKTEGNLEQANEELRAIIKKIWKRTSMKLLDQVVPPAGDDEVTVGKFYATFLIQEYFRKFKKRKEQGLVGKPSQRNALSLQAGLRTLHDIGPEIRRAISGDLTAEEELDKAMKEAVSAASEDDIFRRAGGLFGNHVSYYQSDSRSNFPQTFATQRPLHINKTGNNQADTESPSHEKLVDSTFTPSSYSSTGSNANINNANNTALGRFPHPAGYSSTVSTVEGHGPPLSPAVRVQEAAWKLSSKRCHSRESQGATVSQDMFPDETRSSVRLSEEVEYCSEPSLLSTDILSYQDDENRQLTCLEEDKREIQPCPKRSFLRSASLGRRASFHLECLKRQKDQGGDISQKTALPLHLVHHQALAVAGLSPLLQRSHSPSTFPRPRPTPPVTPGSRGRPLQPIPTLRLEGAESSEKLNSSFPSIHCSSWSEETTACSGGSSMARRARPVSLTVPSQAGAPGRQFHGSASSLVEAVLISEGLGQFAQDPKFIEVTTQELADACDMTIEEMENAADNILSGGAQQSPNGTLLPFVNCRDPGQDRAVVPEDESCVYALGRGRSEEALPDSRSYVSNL
T1 sequence (P54287 whole entry partner): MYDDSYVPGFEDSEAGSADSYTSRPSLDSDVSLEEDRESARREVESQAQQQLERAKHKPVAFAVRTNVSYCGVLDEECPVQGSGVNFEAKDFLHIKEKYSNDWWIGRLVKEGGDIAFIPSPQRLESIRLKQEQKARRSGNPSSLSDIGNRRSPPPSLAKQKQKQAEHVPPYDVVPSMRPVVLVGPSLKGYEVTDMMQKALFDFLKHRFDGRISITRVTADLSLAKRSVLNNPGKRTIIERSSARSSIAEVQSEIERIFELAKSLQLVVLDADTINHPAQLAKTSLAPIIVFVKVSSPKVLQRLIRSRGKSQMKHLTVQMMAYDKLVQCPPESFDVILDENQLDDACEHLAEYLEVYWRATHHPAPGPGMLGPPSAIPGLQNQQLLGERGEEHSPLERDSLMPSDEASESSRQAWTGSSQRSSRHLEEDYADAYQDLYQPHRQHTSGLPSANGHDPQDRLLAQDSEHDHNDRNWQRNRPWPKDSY
T1 sequence (P54290 25-944 partner limits assumed): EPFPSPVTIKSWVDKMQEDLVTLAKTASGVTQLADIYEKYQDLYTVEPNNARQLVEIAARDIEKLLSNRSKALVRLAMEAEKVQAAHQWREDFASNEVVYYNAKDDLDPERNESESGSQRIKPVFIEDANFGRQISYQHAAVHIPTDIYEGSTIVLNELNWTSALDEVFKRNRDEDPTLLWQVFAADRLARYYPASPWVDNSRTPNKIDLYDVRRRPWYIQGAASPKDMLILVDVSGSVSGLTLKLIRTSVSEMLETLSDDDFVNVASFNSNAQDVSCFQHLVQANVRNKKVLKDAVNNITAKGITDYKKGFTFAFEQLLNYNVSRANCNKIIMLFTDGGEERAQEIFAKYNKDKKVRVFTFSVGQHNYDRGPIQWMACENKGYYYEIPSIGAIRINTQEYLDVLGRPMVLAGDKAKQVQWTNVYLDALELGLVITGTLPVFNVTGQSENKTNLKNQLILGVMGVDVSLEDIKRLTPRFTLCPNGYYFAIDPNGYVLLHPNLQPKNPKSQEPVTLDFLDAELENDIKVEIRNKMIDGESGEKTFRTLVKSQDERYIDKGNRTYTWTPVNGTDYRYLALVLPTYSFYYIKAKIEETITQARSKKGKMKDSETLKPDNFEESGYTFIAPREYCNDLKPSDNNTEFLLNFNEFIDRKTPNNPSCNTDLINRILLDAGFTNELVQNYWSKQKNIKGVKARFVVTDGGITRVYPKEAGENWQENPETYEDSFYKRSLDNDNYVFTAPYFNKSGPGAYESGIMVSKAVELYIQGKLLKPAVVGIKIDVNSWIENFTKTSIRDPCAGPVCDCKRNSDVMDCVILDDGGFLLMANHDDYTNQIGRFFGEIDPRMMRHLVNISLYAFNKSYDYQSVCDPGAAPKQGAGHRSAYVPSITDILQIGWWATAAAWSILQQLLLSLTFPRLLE
T1 sequence (P54290 945-1091 partner limits assumed): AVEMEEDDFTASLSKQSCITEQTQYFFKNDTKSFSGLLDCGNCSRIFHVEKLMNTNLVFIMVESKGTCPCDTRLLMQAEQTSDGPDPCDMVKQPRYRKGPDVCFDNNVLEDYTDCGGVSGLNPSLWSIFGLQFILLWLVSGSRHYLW
As to the kind of experiment: Radioligand binding, Cav1.2 channel. On the set-up: inhibition: dose or concentration left out as unconfirmed. Conditions: for inhibition: rat cerebral cortex, read-out: % Inhibition of Control Specific Binding, Cav1.2 Channel (Antagonist Radioligand). The procedure: as §1, §2, §3, §4, §5
(§6) Table S4. In vitro binding and functional assays.
(§7) GABA-A receptor (α1,β2,γ2)
(§8) Potassium channel (hERG) 14
(§9) Cav1.2 (h) calcium ion channel cell based antagonist calcium flux assay 16,17

The target in data set [6] is T2, Cav2.2 channel (Rattus norvegicus, UniProt Q02294).
T2 construct: tissue Eurofins (Poitiers, France), contract assay; host or cells: rat cerebral cortex (own knowledge of the vendor's assay)
As to the kind of experiment: Radioligand binding, Cav2.2 channel. On the set-up: dose or concentration left out as unconfirmed. Conditions: rat cerebral cortex; read-out: % Inhibition of Control Specific Binding, Cav2.2 Channel (Antagonist Radioligand). The method, then: as §1, §2, §3, §4, §5, §6, §7, §8, §9

Data set [7] concerns the target T3, Potassium channel (hERG) (Homo sapiens, UniProt Q12809).
T3 construct: Eurofins (Poitiers, France), contract assay
The experiment in a line: Binding, potassium channel (hERG). The conditions noted are these: 100 µM; human recombinant (HEK-293 cells). The method, then:
as §1, §2, §3, §4, §5, §6, §7, §8, §9

The nature of data set [8]: Metabolic stability in human liver microsomes. It is filed as in vitro ADME. The conditions noted are these: 120 min incubation with HLMs. The source says:
Human liver microsomes (HLMs) were used for metabolic stability determination. Moreover, the most probable phase I reactions and structures of metabolites were proposed according to ion fragment analyses with the in silico support of MetaSite 6.0.1 software. […] On the other hand, an excellent metabolic stability of compound 24 was observed. Less than 4% of this derivative was converted into double-hydroxylated metabolite M1 (Figures S3, S4, and S7, Supplementary Materials). Finally, two monohydroxylated metabolites (M1, M2) were found in the reaction mixture with HLMs and 30, and around 17% of this compound was metabolized (Figures S5–S7, Supplementary Materials).
These assays were performed on human liver microsomes (HLMs), purchased from Sigma-Aldrich (St. Louis, MO, USA), according to [14].

Data set [9] in a line: Rotarod test for acute neurological toxicity. Conditions: mouse, in vivo, ip.
In data set [10] the test system is motor coordination of mice. As to the kind of experiment: Rotarod test for acute neurological toxicity. Conditions: for Rotarod test, number of mice / number of mice tested: i.p., 100 mg/kg, 0.5 h.
Data set [11] is described as follows: Parallel artificial membrane permeability assay (PAMPA).
Description: Passive diffusion was tested in the parallel artificial membrane permeability assay (PAMPA) and expressed as the permeability coefficient (Pe). A highly permeable compound, caffeine (CFN), and a poorly permeable compound, norfloxacin (NFX), were used as the references.
Precoated PAMPA Plate System Gentest™ was provided by Corning, (Tewksbury, MA, USA).
The mark [12] stands for this setting: read-out: MES test, number of mice protected / number of mice tested (converted).

Values joined by “and” are separate entries in the source; they are usually repeats but may differ in a detail not shown here. Identical values can stand only once. Like-named read-outs stand apart in the source and are kept apart here.

T3 sequence (Q12809 whole entry): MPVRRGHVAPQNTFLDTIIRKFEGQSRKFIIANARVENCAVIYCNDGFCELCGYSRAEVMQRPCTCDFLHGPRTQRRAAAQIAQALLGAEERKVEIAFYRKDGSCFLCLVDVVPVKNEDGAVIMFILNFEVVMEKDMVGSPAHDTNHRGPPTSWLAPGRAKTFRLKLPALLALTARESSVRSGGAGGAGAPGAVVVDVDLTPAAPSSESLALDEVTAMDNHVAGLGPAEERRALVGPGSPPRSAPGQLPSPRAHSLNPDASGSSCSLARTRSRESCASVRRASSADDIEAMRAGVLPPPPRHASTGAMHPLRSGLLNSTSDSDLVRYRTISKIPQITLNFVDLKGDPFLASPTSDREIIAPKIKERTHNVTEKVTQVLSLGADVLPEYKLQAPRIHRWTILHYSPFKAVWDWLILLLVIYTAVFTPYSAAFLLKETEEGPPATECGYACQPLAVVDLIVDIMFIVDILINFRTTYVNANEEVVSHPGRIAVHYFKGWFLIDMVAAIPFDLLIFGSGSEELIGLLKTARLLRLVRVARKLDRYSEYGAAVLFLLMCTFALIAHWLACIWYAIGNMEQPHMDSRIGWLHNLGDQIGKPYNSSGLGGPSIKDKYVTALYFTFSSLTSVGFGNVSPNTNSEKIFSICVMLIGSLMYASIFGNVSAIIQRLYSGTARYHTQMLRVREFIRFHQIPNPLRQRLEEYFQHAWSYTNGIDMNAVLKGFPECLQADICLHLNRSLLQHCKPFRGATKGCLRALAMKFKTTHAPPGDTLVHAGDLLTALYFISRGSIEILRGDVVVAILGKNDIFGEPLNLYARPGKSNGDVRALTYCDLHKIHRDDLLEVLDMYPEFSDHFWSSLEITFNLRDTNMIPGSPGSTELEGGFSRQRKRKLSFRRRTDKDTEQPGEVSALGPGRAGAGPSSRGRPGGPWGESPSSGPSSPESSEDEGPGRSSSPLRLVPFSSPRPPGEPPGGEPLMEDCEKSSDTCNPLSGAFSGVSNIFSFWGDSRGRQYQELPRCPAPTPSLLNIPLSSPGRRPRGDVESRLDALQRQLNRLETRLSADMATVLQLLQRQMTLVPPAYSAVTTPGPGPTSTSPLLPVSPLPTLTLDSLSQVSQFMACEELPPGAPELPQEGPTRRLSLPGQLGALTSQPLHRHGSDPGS

Consider `O=C(Nc1ccccc1F)C(c1ccccc1)N1C(=O)CCC1=O` (centres unmarked) [Compound 4, 2-(2,5-Dioxopyrrolidin-1-yl)-N-(2-fluorophenyl)-2-phenylacetamide], for which the responders at 100 mg/kg was 100% in [1] (setting [12]) and 25% in data set [2]. The ED50 in data set [1] came to 73.2 mg/kg. Also, in data set [3] (i.p., 120 mg/kg), the “attenuation of nociceptive response in capsaicin-induced pain” value turned out to be 37.9%. The “% Inhibition of Control Specific Binding, Na+ Channel (Site 2) (Antagonist Radioligand)” value in data set [4] turned out to be 23.5%. The figures for the inhibition in data set [5] and in data set [6] were 5% and 1.1%, respectively. Moreover, the “% Inhibition of Control Specific Binding, Potassium Channel (hERG)” value in data set [7] was 2.3%. Moreover, the “parent compound remained in the reaction mixture” value in [8] is 71.44% and 71.4%. The TD50 at 0.5 h in data set [9] is above 300 mg/kg. The “impairment of motor coordination of mice” value in data set [10] (doses as high as 300 mg/kg) is “did not impair motor coordination”. The “Rotarod test, number of mice / number of mice tested” value in data set [10] was 0/4. In [11], the Papp amounted to 11.2 ± 0.7 ×10⁻⁶ cm/s.
Turning to `O=C(NCCc1cccc(OC(F)(F)F)c1)C(c1ccccc1)N1C(=O)CCC1=O` (centres unmarked) [Compound 30, 2-(2,5-Dioxopyrrolidin-1-yl)-2-phenyl-N-(3-(trifluoromethoxy)phenethyl)acetamide], the responders at 100 mg/kg is 100% in data set [1] (groups of four, read-out: protection in the MES test); 100% in [1] (setting [12]); 75% in [2]. The ED50 in data set [1] was determined as 45.6 mg/kg; in data set [2] (at TPE (0.5 h; LTG 1.0 h), 95% confidence intervals in parentheses), 39.5 mg/kg; in data set [3] (Mus musculus, ip, i.p. 30 min before test) it was 35.3 mg/kg. Besides, the “% Inhibition of Control Specific Binding, Na+ Channel (Site 2) (Antagonist Radioligand)” value in data set [4] is on record as 15.8%. For the same compound, the “binding to voltage-gated calcium channels Cav1.2” value in [5] (concentration of 10 µM) was “moderate binding”. In addition, the inhibition came to 47.6% in [5] and 4% in [6]. In data set [7], the “% Inhibition of Control Specific Binding, Potassium Channel (hERG)” value was 1.7%. Moreover, the “compound converted into metabolites / metabolized” value in data set [8] is listed as “around 17%”. For the same compound, in data set [8], the “parent compound remained in the reaction mixture” value came out at 83.39%. In [9], this compound displayed a TD50 at 0.5 h of 162 mg/kg. Moreover, in [10], the “Rotarod test, number of mice / number of mice tested” value is listed as 0/4. Also, the Papp in [11] turned out to be 13.2 ± 1.5 ×10⁻⁶ cm/s.
